Measurements reported in publication PMC7377239, “Cardiovascular Effects of Polychlorinated Biphenyls and Their Major Metabolites” (Environmental Health Perspectives, 2020).
Where two headings read alike, the source gives them in different places.

Test system: iCell cardiomyocytes (human iPSC-derived cardiomyocytes)
Test: High-content imaging of cytotoxicity and mitochondrial integrity in iPSC-CMs
Assay type: cell-based
Summary of the method: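 Readouts from high-content images were normalized to vehicle controls containing 0.5% vol/vol DMSO. They were fit to a four-parameter logistic model in R. Points of departure were set using a cutoff of one standard deviation across vehicle control means. Where no concentration–response was seen, the top tested concentration of 100μM was assigned as the no observable adverse effect level.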

[1] = 100.00 µM, 90min, 0.00 µM = 100.00
[2] = Homo sapiens, Cardiomyocyte, 1.5 h, 90min, 0.00 µM = 100.00, read-out: cm.cam.90min
[3] = Homo sapiens, Cardiomyocyte, 1.5 h, 90min, 0.00 µM = 100.00, read-out: cm.mii.90min
[4] = Homo sapiens, Cardiomyocyte, 1.5 h, 90min, 0.00 µM = 100.00, read-out: cm.mito.90min
[5] = Homo sapiens, Cardiomyocyte, 1.5 h, 90min, 0.00 µM = 100.00, read-out: cm.tc.90min
[6] = Homo sapiens, Cardiomyocyte, 24 h, 24hrs, 0.00 µM = 100.00, read-out: cm.cam.24hrs
[7] = Homo sapiens, Cardiomyocyte, 24 h, 24hrs, 0.00 µM = 100.00, read-out: cm.mii.24hrs
[8] = Homo sapiens, Cardiomyocyte, 24 h, 24hrs, 0.00 µM = 100.00, read-out: cm.mito.24hrs
[9] = Homo sapiens, Cardiomyocyte, 24 h, 24hrs, 0.00 µM = 100.00, read-out: cm.tc.24hrs

`Clc1ccc(Cl)c(-c2c(Cl)ccc(Cl)c2Cl)c1Cl` [(+)-PCB 136, 2,2′,3,3′,6,6′-hexachlorobiphenyl] was tested, and the cm.mii.24hrs (0.10 µM, 24hrs, 0.00 µM = 100.00) was 104.89, the cm.mito.24hrs (10.00 µM, 24hrs, 0.00 µM = 100.00) was 66.95 and the cm.mii.90min [1] was 30.66. The cm.mito.90min [1] was 0.83, the cm.mii.24hrs (100.00 µM, 24hrs, 0.00 µM = 100.00) was 35.96 and the viability at 0.01 µM [2] was 94%. For the same compound, the activity at 0.01 µM [3] was 115%, the activity at 0.01 µM [4] was 94.1% and the viability at 0.01 µM [5] was 94.5%. It also gave a viability at 0.1 µM (Homo sapiens, Cardiomyocyte, 1.5 h, 0.10 µM, 90min, 0.00 µM = 100.00, read-out: cm.cam.90min) of 100%, an activity at 0.1 µM (Homo sapiens, Cardiomyocyte, 1.5 h, 0.10 µM, 90min, 0.00 µM = 100.00, read-out: cm.mii.90min) of 108% and an activity at 0.1 µM (Homo sapiens, Cardiomyocyte, 1.5 h, 0.10 µM, 90min, 0.00 µM = 100.00, read-out: cm.mito.90min) of 100%. For the same compound, the viability at 0.1 µM (Homo sapiens, Cardiomyocyte, 1.5 h, 0.10 µM, 90min, 0.00 µM = 100.00, read-out: cm.tc.90min) was 100%, the viability at 1 µM [2] was 97.7% and the activity at 1 µM [3] was 103%. The activity at 1 µM [4] was 97.5%, the viability at 1 µM [5] was 97.8% and the viability at 10 µM (Homo sapiens, Cardiomyocyte, 1.5 h, 10.00 µM, 90min, 0.00 µM = 100.00, read-out: cm.cam.90min) was 101%. For the same compound, the activity at 10 µM (Homo sapiens, Cardiomyocyte, 1.5 h, 10.00 µM, 90min, 0.00 µM = 100.00, read-out: cm.mii.90min) was 101%, the activity at 10 µM (Homo sapiens, Cardiomyocyte, 1.5 h, 10.00 µM, 90min, 0.00 µM = 100.00, read-out: cm.mito.90min) was 102% and the viability at 10 µM (Homo sapiens, Cardiomyocyte, 1.5 h, 10.00 µM, 90min, 0.00 µM = 100.00, read-out: cm.tc.90min) was 102%. For the same compound, the viability at 0.01 µM [6] was 92.8%, the activity at 0.01 µM [7] was 90.7% and the activity at 0.01 µM [8] was 95.4%. For the same compound, the viability at 0.01 µM [9] was 95.4%, the viability at 0.1 µM (Homo sapiens, Cardiomyocyte, 24 h, 0.10 µM, 24hrs, 0.00 µM = 100.00, read-out: cm.cam.24hrs) was 96.6% and the activity at 0.1 µM (Homo sapiens, Cardiomyocyte, 24 h, 0.10 µM, 24hrs, 0.00 µM = 100.00, read-out: cm.mito.24hrs) was 98.1%. It also gave a viability at 0.1 µM (Homo sapiens, Cardiomyocyte, 24 h, 0.10 µM, 24hrs, 0.00 µM = 100.00, read-out: cm.tc.24hrs) of 96.6%, a viability at 1 µM [6] of 95.6% and an activity at 1 µM [7] of 86.4%. For the same compound, the activity at 1 µM [8] was 97%, the viability at 1 µM [9] was 96.3% and the activity at 10 µM (Homo sapiens, Cardiomyocyte, 24 h, 10.00 µM, 24hrs, 0.00 µM = 100.00, read-out: cm.mii.24hrs) was 99.9%. For the same compound, the viability at 100 µM (Homo sapiens, Cardiomyocyte, 24 h, 100.00 µM, 24hrs, 0.00 µM = 100.00, read-out: cm.cam.24hrs) was 1.96%, the activity at 100 µM (Homo sapiens, Cardiomyocyte, 24 h, 100.00 µM, 24hrs, 0.00 µM = 100.00, read-out: cm.mito.24hrs) was 1.15% and the viability at 100 µM (Homo sapiens, Cardiomyocyte, 24 h, 100.00 µM, 24hrs, 0.00 µM = 100.00, read-out: cm.tc.24hrs) was 2.72%. For the same compound, the minimal effective concentration (Homo sapiens, Cardiomyocyte, 24 h, cardiomyocytes (cm), mii, 24 hrs, read-out: POD cm.mii.24hrs) was 50.8 µM and the minimal effective concentration (Homo sapiens, Cardiomyocyte, 24 h, read-out: cm.mii.24hrs POD) was 50.8 µM.
